These results are taken from patent US20180264121A1, “CANNABINOID-CONTAINING ORAL PHARMACEUTICAL COMPOSITION, METHOD FOR PREPARING AND USING SAME” (PRATI-DONADUZZI & CIA LTDA., priority 2015, published 2018).

A short description of this data set: Solubility of the API (quality-control specification). Type of data set: physicochemical. The source says:
Validated Analytical Methodology and Acceptable Limits to Ensure Identity, Quality and Purity of the API.

`C=C(C)[C@@H]1CCC(C)=C[C@H]1c1c(O)cc(CCCCC)cc1O` [API, cannabidiol]: the SOLUBILITY result (in chloroform) was “SOLUBLE”, the SOLUBILITY result (in ethanol 96%) is given as “SOLUBLE”, the SOLUBILITY entry (in hexane) was “SLIGHTLY SOLUABLE IN HEXANE” and the SOLUBILITY entry (in purified water) is reported as “INSOLUBLE”.
